How the values were obtained:
[1] = system: Poly dA ⋅ Poly dT (DNA, polymer) A/T; experiment: thermal melting; conditions: 100 mM KCl; 10 mM HEPES, 0.4 mM EDTA; 5 μM duplex, ligand 1:10 per base pair; Tm without ligand 72±1.0
[2] = system: Seq 6 dsDNA (5'-CTTCGATAGTG) (DNA, duplex) CTTCGATAGTG/CACTATCGAAG; experiment: fluorescence quantum yield titration; conditions: 100 mM KCl; 10 mM HEPES pH 7, 0.4 mM EDTA, 25 °C
[3] = system: Seq 5 dsDNA (DNA, duplex) GCGCCCGC/GCGGGCGC; experiment: thermal melting; conditions: 100 mM KCl; 10 mM HEPES, 0.4 mM EDTA; 5 μM duplex, ligand 1:10 per base pair; Tm without ligand 54±0.7
[4] = system: HTG DNA (DNA, G4) AGGGTTAGGGTTAGGGTTAGGG; experiment: thermal melting; conditions: 100 mM KCl; 10 mM HEPES, 0.4 mM EDTA; ligand to HTG 2.2:1; Tm without ligand 57±1.9
[5] = system: Poly rA ⋅ Poly rU (RNA, polymer) A/U; experiment: thermal melting; conditions: 100 mM KCl; 10 mM HEPES, 0.4 mM EDTA; 5 μM duplex, ligand 1:10 per base pair; Tm without ligand 58±0.4
[6] = system: Seq 6 dsDNA (DNA, duplex) CTTCGATAGTG/CACTATCGAAG; experiment: thermal melting; conditions: 100 mM KCl; 10 mM HEPES, 0.4 mM EDTA; 5 μM duplex, ligand 1:10 per base pair; Tm without ligand 45±1.1
[7] = system: Seq 4 (GCGGGGGC)2 (DNA, duplex) GCGGGGGC/GCCCCCGC; experiment: fluorescence increase (ΔF), plate reader; conditions: 50 mM NaCl; 10 mM sodium cacodylate, 0.5 mM EDTA, pH 6.0; 1 µM duplex, 1:1 ligand
[8] = system: Seq 5 dsDNA (5'-GCGCCCGC) (DNA, duplex) GCGCCCGC/GCGGGCGC; experiment: thermal melting; conditions: 100 mM KCl; 10 mM HEPES pH not given, 0.4 mM EDTA; 5 µM duplex; ligand 1:10 per base pair
[9] = system: Seq 6 dsDNA (5'-CTTCGATAGTG) (DNA, duplex) CTTCGATAGTG/CACTATCGAAG; experiment: thermal melting; conditions: 100 mM KCl; derived from two Tm; 10 mM HEPES, 0.4 mM EDTA; ligand 1:10 per base pair
[10] = system: Seq 5 dsRNA (RNA, duplex) GCGCCCGC/GCGGGCGC; experiment: thermal melting; conditions: 100 mM KCl; 10 mM HEPES pH not given, 0.4 mM EDTA; 5 µM duplex; ligand 1:10 per base pair
[11] = system: Seq 3 (GGGGCGGG)2 (DNA, duplex) GGGGCGGG/CCCGCCCC; experiment: fluorescence increase (ΔF), plate reader; conditions: 50 mM NaCl; 10 mM sodium cacodylate, 0.5 mM EDTA, pH 6.0; 1 µM duplex, 1:1 ligand
[12] = system: Poly dA ⋅ Poly dT (DNA, polymer) A/T; experiment: thermal melting; conditions: 100 mM KCl, derived from two Tm, 10 mM HEPES, 0.4 mM EDTA, ligand 1:10 per base pair
[13] = system: Seq 1 (GGGGCCCC)2 (DNA, duplex) GGGGCCCC; experiment: fluorescence increase (ΔF), plate reader; conditions: 50 mM NaCl; 10 mM sodium cacodylate, 0.5 mM EDTA, pH 6.0; 1 µM duplex, 1:1 ligand
[14] = system: Seq 2 (CCCCGGGG)2 (DNA, duplex) CCCCGGGG; experiment: fluorescence increase (ΔF), plate reader; conditions: 50 mM NaCl; 10 mM sodium cacodylate, 0.5 mM EDTA, pH 6.0; 1 µM duplex, 1:1 ligand
[15] = system: Poly rA ⋅ Poly rU (RNA, polymer) A/U; experiment: thermal melting; conditions: 100 mM KCl, derived from two Tm, 10 mM HEPES, 0.4 mM EDTA, ligand 1:10 per base pair
[16] = system: HTG DNA (human telomeric G-quadruplex), d[AG3(T2AG3)3] (DNA, G4) AGGGTTAGGGTTAGGGTTAGGG; experiment: thermal melting; conditions: 100 mM KCl; derived from two Tm; 10 mM HEPES, 0.4 mM EDTA; 5 µM DNA; ligand to HTG 2.2:1

CN1C(=Cc2cc[n+](C)c3ccccc23)Sc2ccccc21
Tm [1]: 73±0.3 °C | binding [2]: yes | Tm [3]: 54±1.6 °C | Tm [4]: 61±1.2 °C | Tm [5]: 58±1.1 °C | Tm [6]: 52±1.0 °C

CN1C(=Cc2cc[n+](CCCCC(=O)NCCSC[C@H]3O[C@@H](O[C@@H]4[C@@H](O)[C@H](N)C[C@H](N)[C@H]4O[C@H]4O[C@H](CN)[C@@H](O)[C@H](O)[C@H]4N)[C@H](O)[C@@H]3O[C@H]3O[C@@H](CN)[C@@H](O)[C@H](O)[C@H]3N)c3ccccc23)Sc2ccccc21
binding [7]: yes | Tm increase [8]: 10.8 °C | ΔTm [9]: 13 °C | Tm increase [10]: 11 °C | binding [11]: yes | ΔTm [12]: 1 °C | binding [13]: yes | binding [14]: yes | ΔTm [15]: 21 °C | ΔTm [16]: 10 °C

CN1C(=Cc2cc[n+](CCCCC(=O)NC[C@H]3O[C@@H](O[C@@H]4[C@@H](O)[C@H](N)C[C@H](N)[C@H]4O[C@H]4O[C@H](CN)[C@@H](O)[C@H](O)[C@H]4N)[C@H](O)[C@@H]3O[C@H]3O[C@@H](CN)[C@@H](O)[C@H](O)[C@H]3N)c3ccccc23)Sc2ccccc21
binding [7]: yes | Tm increase [8]: 13.8 °C | ΔTm [9]: 9 °C | Tm increase [10]: 9.7 °C | binding [11]: yes | ΔTm [12]: 0 °C | binding [13]: yes | binding [14]: yes | ΔTm [15]: 13 °C | ΔTm [16]: 8 °C
